According to ChEMBL document CHEMBL5465560, “Selectivity Literature for EUbOPEN Chemogenomic Library” (2024):

Tests used:
[1] = target: T1, Ephrin type-B receptor 4 (Homo sapiens) (UniProt P54760); assay: Selectivity interaction (KinomeScan (DiscoverX)) EUB0001079a EPHB4; conditions: at 1 µM
T1 sequence (whole entry): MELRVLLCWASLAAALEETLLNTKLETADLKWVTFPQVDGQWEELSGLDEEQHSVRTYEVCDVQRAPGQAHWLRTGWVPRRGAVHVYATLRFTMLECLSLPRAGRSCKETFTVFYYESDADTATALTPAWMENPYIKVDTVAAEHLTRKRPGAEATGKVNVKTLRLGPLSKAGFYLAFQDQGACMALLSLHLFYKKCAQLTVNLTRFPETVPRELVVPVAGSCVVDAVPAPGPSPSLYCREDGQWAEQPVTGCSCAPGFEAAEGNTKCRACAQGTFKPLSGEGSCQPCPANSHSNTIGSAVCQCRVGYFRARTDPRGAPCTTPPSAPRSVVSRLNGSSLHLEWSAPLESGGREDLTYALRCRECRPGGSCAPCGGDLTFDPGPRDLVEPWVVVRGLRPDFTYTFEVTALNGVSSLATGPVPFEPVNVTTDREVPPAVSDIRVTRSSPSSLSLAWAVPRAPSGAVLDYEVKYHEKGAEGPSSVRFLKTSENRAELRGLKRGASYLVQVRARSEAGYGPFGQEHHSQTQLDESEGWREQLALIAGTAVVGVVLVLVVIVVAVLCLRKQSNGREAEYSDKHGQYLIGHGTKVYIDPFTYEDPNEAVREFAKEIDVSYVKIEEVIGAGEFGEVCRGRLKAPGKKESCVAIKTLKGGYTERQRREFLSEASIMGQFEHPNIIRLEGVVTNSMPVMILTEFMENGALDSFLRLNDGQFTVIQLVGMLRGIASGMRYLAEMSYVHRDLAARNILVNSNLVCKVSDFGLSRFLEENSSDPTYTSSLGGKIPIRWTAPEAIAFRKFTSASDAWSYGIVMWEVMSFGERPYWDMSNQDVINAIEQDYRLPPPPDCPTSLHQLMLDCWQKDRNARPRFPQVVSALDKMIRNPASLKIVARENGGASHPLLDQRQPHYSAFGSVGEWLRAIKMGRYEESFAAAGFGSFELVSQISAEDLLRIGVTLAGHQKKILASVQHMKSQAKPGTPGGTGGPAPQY

[2] = target: T2, Serine/threonine-protein kinase Sgk3 (Homo sapiens) (UniProt Q96BR1); conditions: at 10 µM
T2 sequence (whole entry): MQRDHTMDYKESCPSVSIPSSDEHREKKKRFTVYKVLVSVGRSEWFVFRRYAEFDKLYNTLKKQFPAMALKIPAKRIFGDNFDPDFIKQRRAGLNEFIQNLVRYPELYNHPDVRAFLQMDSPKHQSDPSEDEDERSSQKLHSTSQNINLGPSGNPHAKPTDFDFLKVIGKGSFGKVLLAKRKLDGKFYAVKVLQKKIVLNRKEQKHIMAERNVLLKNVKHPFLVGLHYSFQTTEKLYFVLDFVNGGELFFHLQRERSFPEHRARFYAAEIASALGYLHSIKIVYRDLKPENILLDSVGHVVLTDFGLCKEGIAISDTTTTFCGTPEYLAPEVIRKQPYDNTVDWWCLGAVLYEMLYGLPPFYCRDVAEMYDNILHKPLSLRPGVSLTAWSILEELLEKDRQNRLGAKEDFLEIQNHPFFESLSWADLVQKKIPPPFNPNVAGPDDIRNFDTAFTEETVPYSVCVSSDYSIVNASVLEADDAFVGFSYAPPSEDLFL

[3] = target: T3, Ephrin type-B receptor 6 (Homo sapiens) (UniProt O15197); assay: Selectivity interaction (KinomeScan (DiscoverX)) EUB0001049a EPHB6; conditions: at 1 µM
T3 sequence (whole entry): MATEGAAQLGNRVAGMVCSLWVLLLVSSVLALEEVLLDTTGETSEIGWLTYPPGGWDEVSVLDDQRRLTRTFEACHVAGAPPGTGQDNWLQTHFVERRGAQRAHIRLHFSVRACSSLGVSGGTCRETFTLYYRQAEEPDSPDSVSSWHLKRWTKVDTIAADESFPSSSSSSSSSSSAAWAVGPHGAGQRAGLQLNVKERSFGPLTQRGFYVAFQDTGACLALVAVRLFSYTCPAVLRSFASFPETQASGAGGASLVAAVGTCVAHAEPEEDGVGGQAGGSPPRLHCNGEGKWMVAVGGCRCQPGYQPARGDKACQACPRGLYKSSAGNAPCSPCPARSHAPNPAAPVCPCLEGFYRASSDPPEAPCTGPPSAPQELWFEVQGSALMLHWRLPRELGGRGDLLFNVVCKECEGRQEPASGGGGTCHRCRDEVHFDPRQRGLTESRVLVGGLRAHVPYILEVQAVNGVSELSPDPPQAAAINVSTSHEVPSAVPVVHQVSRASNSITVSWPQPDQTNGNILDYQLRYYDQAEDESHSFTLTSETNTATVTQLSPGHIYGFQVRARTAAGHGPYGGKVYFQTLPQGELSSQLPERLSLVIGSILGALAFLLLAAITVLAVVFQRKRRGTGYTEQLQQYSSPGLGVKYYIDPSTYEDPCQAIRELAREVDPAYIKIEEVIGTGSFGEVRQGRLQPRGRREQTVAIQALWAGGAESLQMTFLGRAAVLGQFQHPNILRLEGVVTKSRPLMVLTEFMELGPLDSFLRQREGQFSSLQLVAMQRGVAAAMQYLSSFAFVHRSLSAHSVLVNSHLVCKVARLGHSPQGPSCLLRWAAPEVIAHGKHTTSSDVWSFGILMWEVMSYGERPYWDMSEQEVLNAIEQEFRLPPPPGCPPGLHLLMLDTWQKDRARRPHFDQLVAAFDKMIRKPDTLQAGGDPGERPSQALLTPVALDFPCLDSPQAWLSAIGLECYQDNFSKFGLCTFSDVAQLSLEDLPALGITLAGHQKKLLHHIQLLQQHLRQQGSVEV

[4] = target: Dual specificity mitogen-activated protein kinase kinase 1 (Homo sapiens, UniProt Q02750); assay: Selectivity interaction (Kinase panel (Invitrogen)) EUB0000639a MAP2K1; conditions: at 200 nM
Chain of Dual specificity mitogen-activated protein kinase kinase 1 (Q02750 whole entry): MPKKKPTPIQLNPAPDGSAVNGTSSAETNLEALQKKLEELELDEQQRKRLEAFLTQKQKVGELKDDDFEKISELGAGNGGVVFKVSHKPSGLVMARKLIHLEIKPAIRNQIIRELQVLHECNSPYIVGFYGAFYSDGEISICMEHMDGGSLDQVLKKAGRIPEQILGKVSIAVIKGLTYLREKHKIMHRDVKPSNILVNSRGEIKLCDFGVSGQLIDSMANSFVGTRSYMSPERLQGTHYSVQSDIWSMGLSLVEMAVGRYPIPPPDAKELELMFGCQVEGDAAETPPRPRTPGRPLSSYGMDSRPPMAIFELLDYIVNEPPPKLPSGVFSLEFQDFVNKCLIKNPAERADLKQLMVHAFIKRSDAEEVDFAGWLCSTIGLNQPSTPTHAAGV

Nc1cnc(N2CCc3cc(S(=O)(=O)Nc4c(F)cc(Cl)cc4F)cc(N4CCCC4=O)c32)nc1 [TP-020n]
% of control [1]: 100%

Cc1cc([C@@H](C)Nc2ccccc2C(=O)O)c2nc(N3CCOCC3)cc(=O)n2c1 [AZD-6482]
% of control [2]: 86%

COc1cc(Nc2nc(C)cc(-c3cnn4nc(OC)ccc34)n2)cc(C(F)(F)F)c1
% of control [3]: 78%

CC[C@@H]1[C@H](F)C(=O)N[C@@H]1COc1nccc2cc(C(N)=O)c(OC)cc12 [ZIMLOVISERTIB]
% of inhibition [4]: 9.31%
